Data from ChEMBL document CHEMBL4665869, “New thiazolopyrimidine as anticancer agents: Synthesis, biological evaluation, DNA binding, molecular modeling and ADMET study” (Bioorg Med Chem Lett, 2020).

What was measured:
LOX IMVI = assay: Growth inhibition of human LOX IMVI cells at 10 uM relative to control; format: functional; details: read-out: GI
MDA-MB-468 = assay: Growth inhibition of human MDA-MB-468 cells at 10 uM relative to control; format: functional; details: read-out: GI
T47D = assay: Growth inhibition of human T47D cells at 10 uM relative to control; format: functional; details: read-out: GI
CCRF-CEM = assay: Growth inhibition of human CCRF-CEM cells at 10 uM relative to control; format: functional; details: read-out: GI
HL-60(TB) = assay: Growth inhibition of human HL-60(TB) cells at 10 uM relative to control; format: functional; details: read-out: GI
K562 = assay: Growth inhibition of human K562 cells at 10 uM relative to control; format: functional; details: read-out: GI
MOLT-4 = assay: Growth inhibition of human MOLT-4 cells at 10 uM relative to control; format: functional; details: read-out: GI
RPMI-8226 = assay: Growth inhibition of human RPMI-8226 cells at 10 uM relative to control; format: functional; details: read-out: GI
SR = assay: Growth inhibition of human SR cells at 10 uM relative to control; format: functional; details: read-out: GI
A549 = assay: Growth inhibition of human A549 cells at 10 uM relative to control; format: functional; details: read-out: GI
HOP-62 = assay: Growth inhibition of human HOP-62 cells at 10 uM relative to control; format: functional; details: read-out: GI
HOP-92 = assay: Growth inhibition of human HOP-92 cells at 10 uM relative to control; format: functional; details: read-out: GI
NCI-H226 = assay: Growth inhibition of human NCI-H226 cells at 10 uM relative to control; format: functional; details: read-out: GI
NCI-H23 = assay: Growth inhibition of human NCI-H23 cells at 10 uM relative to control; format: functional; details: read-out: GI
NCI-H322M = assay: Growth inhibition of human NCI-H322M cells at 10 uM relative to control; format: functional; details: read-out: GI
NCI-H460 = assay: Growth inhibition of human NCI-H460 cells at 10 uM relative to control; format: functional; details: read-out: GI
NCI-H522 = assay: Growth inhibition of human NCI-H522 cells at 10 uM relative to control; format: functional; details: read-out: GI
SW-620 = assay: Growth inhibition of human SW-620 cells at 10 uM relative to control; format: functional; details: read-out: GI
COLO 205 = assay: Growth inhibition of human COLO 205 cells at 10 uM relative to control; format: functional; details: read-out: GI
HCC 2998 = assay: Growth inhibition of human HCC 2998 cells at 10 uM relative to control; format: functional; details: read-out: GI
HCT-116 = assay: Growth inhibition of human HCT-116 cells at 10 uM relative to control; format: functional; details: read-out: GI
HCT-15 = assay: Growth inhibition of human HCT-15 cells at 10 uM relative to control; format: functional; details: read-out: GI
HT-29 = assay: Growth inhibition of human HT-29 cells at 10 uM relative to control; format: functional; details: read-out: GI
KM12 = assay: Growth inhibition of human KM12 cells at 10 uM relative to control; format: functional; details: read-out: GI
SF-268 = assay: Growth inhibition of human SF-268 cells at 10 uM relative to control; format: functional; details: read-out: GI
SF-295 = assay: Growth inhibition of human SF-295 cells at 10 uM relative to control; format: functional; details: read-out: GI
SF-539 = assay: Growth inhibition of human SF-539 cells at 10 uM relative to control; format: functional; details: read-out: GI
SNB-19 = assay: Growth inhibition of human SNB-19 cells at 10 uM relative to control; format: functional; details: read-out: GI
SNB-75 = assay: Growth inhibition of human SNB-75 cells at 10 uM relative to control; format: functional; details: read-out: GI
U-251 = assay: Growth inhibition of human U-251 cells at 10 uM relative to control; format: functional; details: read-out: GI
Malme-3M = assay: Growth inhibition of human Malme-3M cells at 10 uM relative to control; format: functional; details: read-out: GI
M14 = assay: Growth inhibition of human M14 cells at 10 uM relative to control; format: functional; details: read-out: GI
MDA-MB-435 = assay: Growth inhibition of human MDA-MB-435 cells at 10 uM relative to control; format: functional; details: read-out: GI
SK-MEL-2 = assay: Growth inhibition of human SK-MEL-2 cells at 10 uM relative to control; format: functional; details: read-out: GI
SK-MEL-28 = assay: Growth inhibition of human SK-MEL-28 cells at 10 uM relative to control; format: functional; details: read-out: GI
SK-MEL-5 = assay: Growth inhibition of human SK-MEL-5 cells at 10 uM relative to control; format: functional; details: read-out: GI
UACC-257 = assay: Growth inhibition of human UACC-257 cells at 10 uM relative to control; format: functional; details: read-out: GI
UACC-62 = assay: Growth inhibition of human UACC-62 cells at 10 uM relative to control; format: functional; details: read-out: GI
IGROV-1 = assay: Growth inhibition of human IGROV-1 cells at 10 uM relative to control; format: functional; details: read-out: GI
OVCAR-4 = assay: Growth inhibition of human OVCAR-4 cells at 10 uM relative to control; format: functional; details: read-out: GI
OVCAR-5 = assay: Growth inhibition of human OVCAR-5 cells at 10 uM relative to control; format: functional; details: read-out: GI
OVCAR-8 = assay: Growth inhibition of human OVCAR-8 cells at 10 uM relative to control; format: functional; details: read-out: GI
NCI/ADR-RES = assay: Growth inhibition of human NCI/ADR-RES cells at 10 uM relative to control; format: functional; details: read-out: GI
SK-OV-3 = assay: Growth inhibition of human SK-OV-3 cells at 10 uM relative to control; format: functional; details: read-out: GI
786-0 = assay: Growth inhibition of human 786-0 cells at 10 uM relative to control; format: functional; details: read-out: GI
A498 = assay: Growth inhibition of human A498 cells at 10 uM relative to control; format: functional; details: read-out: GI
ACHN = assay: Growth inhibition of human ACHN cells at 10 uM relative to control; format: functional; details: read-out: GI
CAKI-1 = assay: Growth inhibition of human CAKI-1 cells at 10 uM relative to control; format: functional; details: read-out: GI
RXF 393 = assay: Growth inhibition of human RXF 393 cells at 10 uM relative to control; format: functional; details: read-out: GI
SN12C = assay: Growth inhibition of human SN12C cells at 10 uM relative to control; format: functional; details: read-out: GI
TK-10 = assay: Growth inhibition of human TK-10 cells at 10 uM relative to control; format: functional; details: read-out: GI
UO-31 = assay: Growth inhibition of human UO-31 cells at 10 uM relative to control; format: functional; details: read-out: GI
PC-3 = assay: Growth inhibition of human PC-3 cells at 10 uM relative to control; format: functional; details: read-out: GI
DU-145 = assay: Growth inhibition of human DU-145 cells at 10 uM relative to control; format: functional; details: read-out: GI
MCF7 = assay: Growth inhibition of human MCF7 cells at 10 uM relative to control; format: functional; details: read-out: GI
MDA-MB-231 = assay: Growth inhibition of human MDA-MB-231 cells at 10 uM relative to control; format: functional; details: read-out: GI
Hs-578T = assay: Growth inhibition of human Hs-578T cells at 10 uM relative to control; format: functional; details: read-out: GI
BT-549 = assay: Growth inhibition of human BT-549 cells at 10 uM relative to control; format: functional; details: read-out: GI
DNA = assay: Displacement of methyl green from DNA (unknown origin) assessed as DNA intercalation after 24 hrs by colorimetric assay; format: nucleic-acid assay

C1=CN2C(=NC(/C=C/c3cccs3)=CC2c2cccs2)S1 (centres undefined)
33.67 µg/mL: IC50 (DNA)
< 10%: inhibition of growth at 10 µM (LOX IMVI) | inhibition of growth at 10 µM (MDA-MB-468) | inhibition of growth at 10 µM (T47D) | inhibition of growth at 10 µM (CCRF-CEM) | inhibition of growth at 10 µM (HL-60(TB)) | inhibition of growth at 10 µM (K562) | inhibition of growth at 10 µM (MOLT-4) | inhibition of growth at 10 µM (RPMI-8226) | inhibition of growth at 10 µM (SR) | inhibition of growth at 10 µM (A549) | inhibition of growth at 10 µM (HOP-62) | inhibition of growth at 10 µM (HOP-92) | inhibition of growth at 10 µM (NCI-H226) | inhibition of growth at 10 µM (NCI-H23) | inhibition of growth at 10 µM (NCI-H322M) | inhibition of growth at 10 µM (NCI-H460) | inhibition of growth at 10 µM (NCI-H522) | inhibition of growth at 10 µM (SW-620) | inhibition of growth at 10 µM (COLO 205) | inhibition of growth at 10 µM (HCC 2998) | inhibition of growth at 10 µM (HCT-116) | inhibition of growth at 10 µM (HCT-15) | inhibition of growth at 10 µM (HT-29) | inhibition of growth at 10 µM (KM12) | inhibition of growth at 10 µM (SF-268) | inhibition of growth at 10 µM (SF-295) | inhibition of growth at 10 µM (SF-539) | inhibition of growth at 10 µM (SNB-19) | inhibition of growth at 10 µM (U-251) | inhibition of growth at 10 µM (Malme-3M) | inhibition of growth at 10 µM (M14) | inhibition of growth at 10 µM (MDA-MB-435) | inhibition of growth at 10 µM (SK-MEL-2) | inhibition of growth at 10 µM (SK-MEL-28) | inhibition of growth at 10 µM (SK-MEL-5) | inhibition of growth at 10 µM (UACC-257) | inhibition of growth at 10 µM (UACC-62) | inhibition of growth at 10 µM (IGROV-1) | inhibition of growth at 10 µM (OVCAR-4) | inhibition of growth at 10 µM (OVCAR-5) | inhibition of growth at 10 µM (OVCAR-8) | inhibition of growth at 10 µM (NCI/ADR-RES) | inhibition of growth at 10 µM (SK-OV-3) | inhibition of growth at 10 µM (786-0) | inhibition of growth at 10 µM (A498) | inhibition of growth at 10 µM (ACHN) | inhibition of growth at 10 µM (CAKI-1) | inhibition of growth at 10 µM (RXF 393) | inhibition of growth at 10 µM (SN12C) | inhibition of growth at 10 µM (TK-10) | inhibition of growth at 10 µM (UO-31) | inhibition of growth at 10 µM (PC-3) | inhibition of growth at 10 µM (DU-145) | inhibition of growth at 10 µM (MCF7) | inhibition of growth at 10 µM (MDA-MB-231) | inhibition of growth at 10 µM (Hs-578T) | inhibition of growth at 10 µM (BT-549)
12.3%: inhibition of growth at 10 µM (SNB-75)
